Where two headings read alike, the source gives them in different places.
Assays:
Type in all cases: cell-based
Proteus vulgaris = assay: Minimum inhibitory concentration against bacteria, strain A; conditions: 24 hours at 30° C.; tested at 100 and 300 mg/liter
Method: (§1) Overnight cultures, grown in Caso peptone bouillon (Merck) of the various strains of bacteria: (A) Proteus vulgaris, (B) Pseudomonas aeruginosa, (C) Enterobacter aerogenes, (D) Serratia marcencens, (E) Alcaligenes denitrificans and (F) Bacillus subtilis are each diluted in a ratio of 1/1000 in saline solution. Sufficient of the suspensions is put into Caso peptone bouillon to dilute the bacteria again in the ratio of 1/1000. Each of the compounds listed in Table 1 is then added in amounts of 100 and 300 mg/liter. After being incubated for 24 hours at 30° C. in a shaking waterbath, the turbidity of the samples is evaluated.

Pseudomonas aeruginosa = assay: Minimum inhibitory concentration against bacteria, strain B; conditions: 24 hours at 30° C.; tested at 100 and 300 mg/liter
Method: as §1

Enterobacter aerogenes = assay: Minimum inhibitory concentration against bacteria, strain C; conditions: 24 hours at 30° C.; tested at 100 and 300 mg/liter
Method: as §1

Serratia marcencens = assay: Minimum inhibitory concentration against bacteria, strain D; conditions: 24 hours at 30° C.; tested at 100 and 300 mg/liter
Method: as §1

[1] = tested on: Alcaligenes denitrificans; assay: Minimum inhibitory concentration against bacteria, strain E; conditions: 24 hours at 30° C.; tested at 100 and 300 mg/liter
Method: as §1

Bacillus subtilis = assay: Minimum inhibitory concentration against bacteria, strain F; conditions: 24 hours at 30° C.; tested at 100 and 300 mg/liter
Method: as §1

Aspergillus niger = assay: Minimum inhibitory concentration against fungi, agar incorporation test, strain K; conditions: malt extract/agar
Method: (§2) The invention is carried out using the known agar incorporation test in the following fungi:
(§3) in a malt extract/agar (Merck). Inhibition is effected by adding sufficient of each of the various compounds to give final concentrations in the agar of 2, 5, 10, 50 and 100 mg/liter. The concentrations (mg/liters) required to inhibit the growth of the fungi (starting from traces of fungi added dropwise) are illustrated in Table 3.

Aspergillus phoenicis = assay: Minimum inhibitory concentration against fungi, agar incorporation test, strain L; conditions: malt extract/agar
Method: as §2
(L) Aspergillus phoenicis
as §3

Penicillium funiculosum = assay: Minimum inhibitory concentration against fungi, agar incorporation test, strain M; conditions: malt extract/agar
Method: as §2
(M) Penicillium funiculosum
as §3

Alternaria alternata = assay: Minimum inhibitory concentration against fungi, agar incorporation test, strain N; conditions: malt extract/agar
Method: as §2, §3

[2] = tested on: Cladosporium cladosporioides; assay: Minimum inhibitory concentration against fungi, agar incorporation test, strain O; conditions: malt extract/agar
Method: as §2
(O) Cladosporium cladosporioides
as §3

Candida albicans = assay: Minimum inhibitory concentration against fungi, agar incorporation test, strain P; conditions: malt extract/agar
Method: as §2, §3

Endomyces geotrichum = assay: Minimum inhibitory concentration against fungi, agar incorporation test, strain Q; conditions: malt extract/agar
Method: as §2, §3

Aureobasidium pullulans = assay: Minimum inhibitory concentration against fungi, agar incorporation test, strain R; conditions: malt extract/agar
Method: as §2
(R) Aureobasidium pullulans
as §3

Chaetomium globosum = assay: Minimum inhibitory concentration against fungi, agar incorporation test, strain S; conditions: malt extract/agar
Method: as §2, §3

Chlorella vulgaris = assay: Action against algae: Chlorella vulgaris; design: key: --: no growth on the agar, 3 ppm have destroyed the algae in 6 hours; conditions: 3 mg/liter; for Growth on the agar (algae-destroying action): 6 hours exposure, 14 days incubation; for Growth in the medium (growth inhibition): 14 days
Method: Cultures of Chlorella vulgaris which had been grown for 14 days in algae nutrient media are diluted in the ratio 1/200 in the algae nutrient medium. Each of the compounds listed in Table 1 is then added in such an amount as to give a final concentration of 3 mg/liter. After incubating for 6 hours, 10 μl of each culture are withdrawn and added dropwise to algae/agar in order to determine the destructive action. After the cultures have incubated for 14 days under illumination (14 hours of light and 10 hours of darkness, alternately), the growth in the algae medium (determination of growth inhibition) and on the algae/agar (determination of algae-destroying action) is assessed visually.

[3] = tested on: mixed culture of bacteria; design: key: +: growth, no destruction; (+): growth less than that of control (>10 colonies), slight destruction; (-): slight growth (1-10 colonies); -: no growth, destruction
[4] = 5 mg/l, culture diluted 1/1000 in Tyrode
[5] = 5 mg/l, culture diluted 1/10000 in Tyrode
[6] = 10 mg/l, culture diluted 1/1000 in Tyrode
[7] = 10 mg/l, culture diluted 1/10000 in Tyrode
[8] = 30 mg/l, culture diluted 1/1000 in Tyrode
[9] = 30 mg/l, culture diluted 1/10000 in Tyrode
[10] = 60 mg/l, culture diluted 1/1000 in Tyrode
[11] = 60 mg/l, culture diluted 1/10000 in Tyrode
[12] = 100 mg/l, culture diluted 1/1000 in Tyrode
[13] = 100 mg/l, culture diluted 1/10000 in Tyrode

Structure (SMILES)	MIC against bacteria, strain A (Proteus vulgaris)	MIC against bacteria, strain B (Pseudomonas aeruginosa)	MIC against bacteria, strain C (Enterobacter aerogenes)	MIC against bacteria, strain D (Serratia marcencens)	MIC against bacteria, strain E [1]	MIC against bacteria, strain F (Bacillus subtilis)	MIC against fungi, strain K (Aspergillus niger)	MIC against fungi, strain L (Aspergillus phoenicis)	MIC against fungi, strain M (Penicillium funiculosum)	MIC against fungi, strain N (Alternaria alternata)	MIC against fungi, strain O [2]	MIC against fungi, strain P (Candida albicans)	MIC against fungi, strain Q (Endomyces geotrichum)	MIC against fungi, strain R (Aureobasidium pullulans)	MIC against fungi, strain S (Chaetomium globosum)	Growth on the agar (algae-destroying action) (Chlorella vulgaris)	Growth in the medium (growth inhibition) (Chlorella vulgaris)	other results
CCCCCCCCCCCC[N+](C)(C)O.CCC[CH2][Sn-]([Cl])([Cl])([CH2]CCC)[CH2]CCC [Example 14, (CH3)2 N(OH)C12 H25 / Tributyldichloro]	100 µg/mL	100 µg/mL	> 300 µg/mL	300 µg/mL	300 µg/mL	100 µg/mL	2 µg/mL	2 µg/mL	5 µg/mL	2 µg/mL	2 µg/mL	5 µg/mL	10 µg/mL	2 µg/mL	2 µg/mL	--	--	
CCCCCCCCCCCC[N+](C)(C)C.CCC[CH2][Sn-]([Cl])([Cl])([CH2]CCC)[CH2]CCC [Example 16, (CH3)3 NC12 H25 / Tributyldichloro]	100 µg/mL	100 µg/mL	100 µg/mL	100 µg/mL	100 µg/mL	100 µg/mL	2 µg/mL	2 µg/mL	5 µg/mL	2 µg/mL	2 µg/mL	5 µg/mL	50 µg/mL	2 µg/mL	2 µg/mL	--	--	
CCCCCCCCCCCCCCCC[N+](C)(C)C.CCC[CH2][Sn-]([Cl])([Cl])([CH2]CCC)[CH2]CCC [Example 17, (CH3)3 NC16 H33 / Tributyldichloro]							2 µg/mL	2 µg/mL	5 µg/mL	2 µg/mL	2 µg/mL	5 µg/mL	10 µg/mL	2 µg/mL	2 µg/mL	--	--	Growth (destruction of a mixed culture of bacteria) [3, 4]: +; Growth (destruction of a mixed culture of bacteria) [3, 5]: (+) (growth less than that of control (>10 colonies), slight destruction); Growth (destruction of a mixed culture of bacteria) [3, 6]: +; Growth (destruction of a mixed culture of bacteria) [3, 7]: (+) (growth less than that of control (>10 colonies), slight destruction); Growth (destruction of a mixed culture of bacteria) [3, 8]: (+) (growth less than that of control (>10 colonies), slight destruction); Growth (destruction of a mixed culture of bacteria) [3, 9]: -; Growth (destruction of a mixed culture of bacteria) [3, 10]: -; Growth (destruction of a mixed culture of bacteria) [3, 11]: -; Growth (destruction of a mixed culture of bacteria) [3, 12]: -; Growth (destruction of a mixed culture of bacteria) [3, 13]: -
CCCCCCCCCCCCCCCCCC[N+](C)(C)C.CCC[CH2][Sn-]([Cl])([Cl])([CH2]CCC)[CH2]CCC [Example 18, (CH3)3 NC18 H37 / Tributyldichloro]							2 µg/mL	2 µg/mL	5 µg/mL	2 µg/mL	2 µg/mL	5 µg/mL	10 µg/mL	2 µg/mL	2 µg/mL	--	--	Growth (destruction of a mixed culture of bacteria) [3, 4]: +; Growth (destruction of a mixed culture of bacteria) [3, 5]: (+) (growth less than that of control (>10 colonies), slight destruction); Growth (destruction of a mixed culture of bacteria) [3, 6]: +; Growth (destruction of a mixed culture of bacteria) [3, 7]: (-) (slight growth (1-10 colonies)); Growth (destruction of a mixed culture of bacteria) [3, 8]: (+) (growth less than that of control (>10 colonies), slight destruction); Growth (destruction of a mixed culture of bacteria) [3, 9]: -; Growth (destruction of a mixed culture of bacteria) [3, 10]: (+) (growth less than that of control (>10 colonies), slight destruction); Growth (destruction of a mixed culture of bacteria) [3, 11]: -; Growth (destruction of a mixed culture of bacteria) [3, 12]: (-) (slight growth (1-10 colonies)); Growth (destruction of a mixed culture of bacteria) [3, 13]: -
CCC[CH2][Sn-]([Cl])([Cl])([CH2]CCC)[CH2]CCC.CCC[CH2][Sn-]([Cl])([Cl])([CH2]CCC)[CH2]CCC.C[N+](C)(C)CCCCCC[N+](C)(C)C [Example 23, (CH3)3 N(CH2)6 N(CH3)3 / Tributyldichloro]	100 µg/mL	100 µg/mL	300 µg/mL	> 300 µg/mL	300 µg/mL	100 µg/mL	10 µg/mL	10 µg/mL	10 µg/mL	≤ 5 µg/mL	≤ 5 µg/mL	≤ 5 µg/mL	10 µg/mL	≤ 5 µg/mL	≤ 5 µg/mL	--	--	
CCCCCCCCCCCCC(=O)NCCC[N+](C)(C)O.CCC[CH2][Sn-]([Cl])([Cl])([CH2]CCC)[CH2]CCC [Example 29, (C12 H25 CO)NH(CH2)3 N(OH)(CH3)2 / Tributyldichloro]	100 µg/mL	100 µg/mL	> 300 µg/mL	> 300 µg/mL	300 µg/mL	100 µg/mL	≤ 5 µg/mL	≤ 5 µg/mL	10 µg/mL	≤ 5 µg/mL	≤ 5 µg/mL	≤ 5 µg/mL	10 µg/mL	≤ 5 µg/mL	≤ 5 µg/mL	--	--	
CCCCCCCCCCCCC(=O)NCCC[N+](C)(C)CC(N)=O.CCC[CH2][Sn-]([Cl])([Cl])([CH2]CCC)[CH2]CCC [Example 30, (C12 H25 CO)NH(CH2) 3 N(CH3)2 (CH2 CONH2) / Tributyldichloro]	100 µg/mL	100 µg/mL	100 µg/mL	100 µg/mL	100 µg/mL	100 µg/mL	≤ 5 µg/mL	≤ 5 µg/mL	10 µg/mL	≤ 5 µg/mL	≤ 5 µg/mL	≤ 5 µg/mL	10 µg/mL	≤ 5 µg/mL	≤ 5 µg/mL	--	--	

Reference: US4578489A (priority 1982, dated 1986)
